Drawing on ChEMBL document CHEMBL4420071, “Method for treating skin with retinoids and retinoid boosters” (2013), this text covers Activity, inhibition and IC20 for six compounds.

For assay [1], the species on record is Homo sapiens. Briefly: Inhibition of transglutaminase in human keratinocytes assessed as mean transglutaminase activity level at 1.23 10^-5M in presence of 10 uM retinal relative to retinal alone. It counts as cell-based. Details: scale not given: the % may be the effect or the level left.
The species entered for assay [2] is Homo sapiens. The assay is described as follows: Inhibition of transglutaminase in human keratinocytes assessed as mean transglutaminase activity level at 4.1 10^-5M in presence of 10 uM retinal relative to retinal alone. Details: scale not given: the % may be the effect or the level left. It counts as cell-based.
For assay [3], the species on record is Homo sapiens. The assay is described as follows: Inhibition of transglutaminase in human keratinocytes assessed as mean transglutaminase activity level at 1.65 10^-7M in presence of 10 uM retinal relative to retinal alone. Details: scale not given: the % may be the effect or the level left. The format is cell-based.
Assay [4] is filed under the species Homo sapiens. Briefly: Inhibition of transglutaminase in human keratinocytes assessed as mean transglutaminase activity level at 1.0 10^-3M in presence of 10 uM retinal relative to retinal alone. The format is cell-based. Details: scale not given: the % may be the effect or the level left.
Assay [5] is filed under the species Homo sapiens. Briefly: Inhibition of transglutaminase in human keratinocytes assessed as mean transglutaminase activity level at 3.29 10^-7M in presence of 10 uM retinal relative to retinal alone. It counts as cell-based. Details: scale not given: the % may be the effect or the level left.
The species named for assay [6] is Homo sapiens. The assay is described as follows: Inhibition of transglutaminase in human keratinocytes assessed as mean transglutaminase activity level at 8.2 10^-6M in presence of 10 uM retinal relative to retinal alone. It counts as cell-based. Details: scale not given: the % may be the effect or the level left.
For assay [7], the species on record is Homo sapiens. The assay is described as follows: Inhibition of transglutaminase in human keratinocytes assessed as mean transglutaminase activity level at 1.1 10^-8M in presence of 10 uM retinal relative to retinal alone. It counts as cell-based. Details: scale not given: the % may be the effect or the level left.
In assay [8] the target is T1, Cellular retinoic acid-binding protein 2 (Homo sapiens) (UniProt P29373).
T1 sequence (whole entry): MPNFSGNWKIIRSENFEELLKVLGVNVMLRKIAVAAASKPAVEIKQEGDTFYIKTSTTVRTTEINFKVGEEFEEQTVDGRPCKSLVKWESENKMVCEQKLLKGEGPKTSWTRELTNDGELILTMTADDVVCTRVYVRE
Briefly: Inhibition of radioactive all-trans retinoic acid binding to CRABP2 (unknown origin) expressed in Escherichia coli BLR(DE3)pLys incubated for 1 hr by scintillation counting assay. The note with it: concentration not given here.

Assay [9] is filed under the species Homo sapiens. Briefly: Inhibition of transglutaminase in human keratinocytes assessed as mean transglutaminase activity level at 3.73 10^-4M in presence of 10 uM retinal relative to retinal alone. The format is cell-based. Details: scale not given: the % may be the effect or the level left.
For assay [10], the species on record is Homo sapiens.
Description: Inhibition of transglutaminase in human keratinocytes in presence of 10 uM retinal relative to retinal alone
For assay [11], the species on record is Homo sapiens. Briefly: Inhibition of transglutaminase in human keratinocytes assessed as mean transglutaminase activity level at 1.1 10^-4M in presence of 10 uM retinal relative to retinal alone. The format is cell-based. Details: scale not given: the % may be the effect or the level left.
For assay [12], the species on record is Homo sapiens. Briefly: Inhibition of transglutaminase in human keratinocytes assessed as mean transglutaminase activity level at 5.0 10^-8M in presence of 10 uM retinal relative to retinal alone. It counts as cell-based. Details: scale not given: the % may be the effect or the level left.
For assay [13], the species on record is Rattus norvegicus. The assay is described as follows: Inhibition of retinal reductase in Sprague-Dawley rat liver microsomes at 100 uM using all-trans retinaldehyde and NADPH by HPLC analysis relative to control.
Assay [14] is filed under the species Homo sapiens. Briefly: Inhibition of transglutaminase in human keratinocytes assessed as mean transglutaminase activity level at 9.0 10^-3M in presence of 10 uM retinal relative to retinal alone. It counts as cell-based. Details: scale not given: the % may be the effect or the level left.
The species named for assay [15] is Homo sapiens. Briefly: Inhibition of transglutaminase in human keratinocytes assessed as mean transglutaminase activity level at 3.0 10^-3M in presence of 10 uM retinal relative to retinal alone. The format is cell-based. Details: scale not given: the % may be the effect or the level left.
The species named for assay [16] is Homo sapiens. The assay is described as follows: Inhibition of transglutaminase in human keratinocytes in presence of retinal relative to retinal alone. It counts as cell-based. The note with it: concentration not given here.
For assay [17], the species on record is Homo sapiens. The assay is described as follows: Inhibition of transglutaminase in human keratinocytes assessed as mean transglutaminase activity level at 1.1 10^-6M in presence of 10 uM retinal relative to retinal alone. It counts as cell-based. Details: scale not given: the % may be the effect or the level left.
For assay [18], the species on record is Homo sapiens. The assay is described as follows: Inhibition of transglutaminase in human keratinocytes assessed as mean transglutaminase activity level at 8.2 10^-8M in presence of 10 uM retinal relative to retinal alone. Details: scale not given: the % may be the effect or the level left. It counts as cell-based.
The species entered for assay [19] is Homo sapiens. Briefly: Inhibition of transglutaminase in human keratinocytes assessed as mean transglutaminase activity level at 3.73 10^-7M in presence of 10 uM retinal relative to retinal alone. It counts as cell-based. Details: scale not given: the % may be the effect or the level left.
The species entered for assay [20] is Homo sapiens. The assay is described as follows: Inhibition of transglutaminase in human keratinocytes assessed as mean transglutaminase activity level at 1 10^-5M in presence of 10 uM retinal relative to retinal alone. It counts as cell-based. Details: scale not given: the % may be the effect or the level left.
The species entered for assay [21] is Homo sapiens. The assay is described as follows: Inhibition of transglutaminase in human keratinocytes assessed as mean transglutaminase activity level at 3.29 10^-9M in presence of 10 uM retinal relative to retinal alone. The format is cell-based. Details: scale not given: the % may be the effect or the level left.
Assay [22] is filed under the species Homo sapiens. Briefly: Inhibition of transglutaminase in human keratinocytes assessed as mean transglutaminase activity level at 4.1 10^-8M in presence of 10 uM retinal relative to retinal alone. The format is cell-based. Details: scale not given: the % may be the effect or the level left.
The species entered for assay [23] is Homo sapiens. The assay is described as follows: Inhibition of transglutaminase in human keratinocytes assessed as mean transglutaminase activity level at 3 10^-5M in presence of 10 uM retinal relative to retinal alone. The format is cell-based. Details: scale not given: the % may be the effect or the level left.
Assay [24] is filed under the species Homo sapiens. The assay is described as follows: Inhibition of transglutaminase in human keratinocytes assessed as mean transglutaminase activity level at 3.3 10^-6M in presence of 10 uM retinal relative to retinal alone. It counts as cell-based. Details: scale not given: the % may be the effect or the level left.
The species named for assay [25] is Homo sapiens. The assay is described as follows: Inhibition of transglutaminase in human keratinocytes assessed as mean transglutaminase activity level at 1.23 10^-7M in presence of 10 uM retinal relative to retinal alone. The format is cell-based. Details: scale not given: the % may be the effect or the level left.
The species entered for assay [26] is Homo sapiens. Briefly: Inhibition of transglutaminase in human keratinocytes assessed as mean transglutaminase activity level at 1.65 10^-9M in presence of 10 uM retinal relative to retinal alone. It counts as cell-based. Details: scale not given: the % may be the effect or the level left.
For assay [27], the species on record is Homo sapiens. Briefly: Inhibition of transglutaminase in human keratinocytes assessed as mean transglutaminase activity level at 6 10^-8M in presence of 10 uM retinal relative to retinal alone. The format is cell-based. Details: scale not given: the % may be the effect or the level left.
The species named for assay [28] is Homo sapiens. Briefly: Inhibition of transglutaminase in human keratinocytes assessed as mean transglutaminase activity level at 4.89 10^-6M in presence of 10 uM retinal relative to retinal alone. It counts as cell-based. Details: scale not given: the % may be the effect or the level left.
The species entered for assay [29] is Homo sapiens. The assay is described as follows: Inhibition of transglutaminase in human keratinocytes assessed as mean transglutaminase activity level at 5.43 10^-7M in presence of 10 uM retinal relative to retinal alone. It counts as cell-based. Details: scale not given: the % may be the effect or the level left.
For assay [30], the species on record is Rattus norvegicus. Briefly: Activation of retinol dehydrogenase in Sprague-Dawley rat liver microsomes assessed as increase in enzyme activity at 100 uM using all-trans retinol and NADP by HPLC analysis relative to control.
Assay [31] is filed under the species Homo sapiens. Briefly: Inhibition of transglutaminase in human keratinocytes assessed as mean transglutaminase activity level at 2.4 10^-9M in presence of 10 uM retinal relative to retinal alone. Details: scale not given: the % may be the effect or the level left. It counts as cell-based.
The species entered for assay [32] is Homo sapiens. The assay is described as follows: Inhibition of transglutaminase in human keratinocytes assessed as mean transglutaminase activity level at 1.63 10^-6M in presence of 10 uM retinal relative to retinal alone. The format is cell-based. Details: scale not given: the % may be the effect or the level left.
Assay [33] is filed under the species Homo sapiens. The assay is described as follows: Inhibition of transglutaminase in human keratinocytes assessed as mean transglutaminase activity level at 1.8 10^-7M in presence of 10 uM retinal relative to retinal alone. The format is cell-based. Details: scale not given: the % may be the effect or the level left.
The species named for assay [34] is Homo sapiens. The assay is described as follows: Inhibition of transglutaminase in human keratinocytes assessed as mean transglutaminase activity level at 1.2 10^-8M in presence of 10 uM retinal relative to retinal alone. It counts as cell-based. Details: scale not given: the % may be the effect or the level left.
Assay [35] is filed under the species Homo sapiens. Briefly: Inhibition of transglutaminase in human keratinocytes assessed as mean transglutaminase activity level at 4.4 10^-5M in presence of 10 uM retinal relative to retinal alone. It counts as cell-based. Details: scale not given: the % may be the effect or the level left.
The species named for assay [36] is Homo sapiens. The assay is described as follows: Inhibition of transglutaminase in human keratinocytes assessed as mean transglutaminase activity level at 1.47 10^-5M in presence of 10 uM retinal relative to retinal alone. Details: scale not given: the % may be the effect or the level left. The format is cell-based.
The species named for assay [37] is Homo sapiens. Briefly: Inhibition of transglutaminase in human keratinocytes at 1 uM relative to control. It counts as cell-based.

For the compound `CC(C)CCCCCCCCCCCCCCC(=O)O`, the Activity in assay [1] is 80%; in assay [2], 67%; in [3], 95%; in [4], -8.6%; in assay [5], 123%; in assay [6] it was 103%. Besides, the Activity in assay [7] is 78%; in assay [9] it was -5.3%; in [11], 1.2%; in [12] it was 78%. In [8], the inhibition is more than 50%. The compound also yielded an IC20 in assay [10] of 6.23 ×10⁻⁵ M.

In assay [13], `CC/C=C\C/C=C\C/C=C\CCCCCCCC(=O)O` returned an inhibition of 54%. In addition, the Activity in [1] was 94.9%; in assay [2], 65.9%; in assay [3] it was 77%; in [4], -7.5%; in assay [5], 98%; in [14] it was -11%. Also, the Activity in [6] is 119%; in assay [9] it was 68%; in [11] it was -23%; in [15] it was -5.7%. The compound further returned an IC20 in assay [10] of 1.21 ×10⁻⁴ M.

As to `O=C(NCNC(=O)NC1C(=O)NC(=O)N1CO)NC1C(=O)NC(=O)N1CO` (stereo not drawn), the inhibition in assay [16] was 35%.

Turning to `CC1(C)[C@@H](O)CC[C@]2(C)[C@H]3C(=O)C=C4[C@@H]5C[C@@](C)(C(=O)O)CC[C@]5(C)CC[C@@]4(C)[C@]3(C)CC[C@@H]12`, the inhibition in assay [13] came to 38%. For the same compound, the Activity in assay [17] turned out to be 96.4%; in [18], 225%; in assay [19], 120%; in [20], 0.7%; in assay [21], 100%; in assay [22], 93%. Also, the Activity in [23] was -0.3%; in assay [24], 2.5%; in assay [25] it was 112%; in assay [26], 103%. Besides, the IC20 in [10] stood at 5.96 ×10⁻⁶ M.

For the compound `CCCCCCCC/C=C\CCCCCCCC(=O)OC[C@H](COP(=O)([O-])OCC[N+](C)(C)C)OC(=O)CCCCCCCCCCCCCCC`, the Activity in assay [27] came out at 87.8%; in [28] it was 70.1%; in assay [29], 86.7%; in assay [30], 21%; in assay [31], 85.5%; in [32] it was 98.8%. Also, the Activity stood at 75.9% in [33], 159% in assay [34], 90.9% in assay [35] and 120% in [36].

In the case of `CC1=C(/C=C/C(C)=C/C=C/C(C)=C/C=O)C(C)(C)CCC1`, the inhibition in [37] stood at 55%.
